Experimental data as given in ChEMBL document CHEMBL4311997, “Discovery of a potent histone deacetylase (HDAC) 3/6 selective dual inhibitor” (Eur J Med Chem, 2019).
Activity calls are given as the source filed them. No cut-off for these calls is given here.

Columns and labels:
[1] = biological target: Protein deacetylase HDAC6 (Homo sapiens) (UniProt Q9UBN7); experiment: Potency index, ratio of IC50 for vorinostat to IC50 for test compound for human HDAC6
[2] = biological target: T1, Protein deacetylase HDAC6 (Homo sapiens, UniProt Q9UBN7); experiment: Inhibition of human HDAC6 using Arg-His-Lys-Lys (Ac) as substrate incubated for 2 hrs by fluorescence assay
T1 sequence (Q9UBN7 whole entry): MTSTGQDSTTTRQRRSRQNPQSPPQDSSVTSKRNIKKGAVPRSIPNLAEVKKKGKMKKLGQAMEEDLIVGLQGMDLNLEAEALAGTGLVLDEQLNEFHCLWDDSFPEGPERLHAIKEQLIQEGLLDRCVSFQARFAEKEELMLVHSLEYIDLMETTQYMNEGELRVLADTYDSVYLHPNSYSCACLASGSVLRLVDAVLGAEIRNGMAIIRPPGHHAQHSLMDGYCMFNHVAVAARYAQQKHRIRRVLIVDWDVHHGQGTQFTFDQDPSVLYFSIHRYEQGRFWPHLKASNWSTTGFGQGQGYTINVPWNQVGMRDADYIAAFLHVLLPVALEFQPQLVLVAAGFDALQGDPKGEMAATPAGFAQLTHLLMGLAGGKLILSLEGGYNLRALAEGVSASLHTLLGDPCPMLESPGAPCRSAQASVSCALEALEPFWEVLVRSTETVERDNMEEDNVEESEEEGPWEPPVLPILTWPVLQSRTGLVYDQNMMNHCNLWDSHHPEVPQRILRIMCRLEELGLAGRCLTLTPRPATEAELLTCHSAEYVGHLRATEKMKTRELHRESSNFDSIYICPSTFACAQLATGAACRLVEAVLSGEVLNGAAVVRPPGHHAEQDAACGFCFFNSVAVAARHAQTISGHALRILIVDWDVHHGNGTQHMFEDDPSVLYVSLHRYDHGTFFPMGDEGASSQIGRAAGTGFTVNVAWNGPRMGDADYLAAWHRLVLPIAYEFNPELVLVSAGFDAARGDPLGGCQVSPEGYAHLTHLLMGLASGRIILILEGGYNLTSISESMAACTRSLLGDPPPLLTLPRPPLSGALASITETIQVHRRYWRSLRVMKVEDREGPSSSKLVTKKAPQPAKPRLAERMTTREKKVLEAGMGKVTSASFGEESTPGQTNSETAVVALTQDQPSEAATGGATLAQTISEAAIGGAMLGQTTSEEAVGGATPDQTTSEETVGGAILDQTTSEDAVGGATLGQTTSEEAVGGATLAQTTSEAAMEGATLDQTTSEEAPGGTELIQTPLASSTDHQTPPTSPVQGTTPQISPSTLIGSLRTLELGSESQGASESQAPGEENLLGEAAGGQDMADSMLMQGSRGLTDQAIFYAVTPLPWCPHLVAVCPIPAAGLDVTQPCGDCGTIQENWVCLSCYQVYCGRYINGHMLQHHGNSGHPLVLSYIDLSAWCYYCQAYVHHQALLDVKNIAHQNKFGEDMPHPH

MDA-MB-231 [3] = experiment: Antiproliferative activity against human MDA-MB-231 cells incubated for 72 hrs by MTT assay; type: functional, cell-based; settings: MDA-MB-231, 72 h
MCF7 = experiment: Antiproliferative activity against human MCF7 cells incubated for 72 hrs by MTT assay; type: functional, cell-based; settings: MCF7, 72 h
Plasmodium falciparum [4] = experiment: microbe, parasite or virus in culture; type: functional, organism-based; settings: 3D7, 48 h
Description: Antimalarial activity against ring stage Plasmodium falciparum 3D7 incubated for 48 hrs by Hoechst 33342 staining based fluorescence based assay

Plasmodium falciparum [5] = experiment: microbe, parasite or virus in culture; type: functional, organism-based; settings: K1, 48 h
Description: Antimalarial activity against ring stage Plasmodium falciparum K1 incubated for 48 hrs by Hoechst 33342 staining based fluorescence based assay

[6] = Selectivity index, ratio of EC50 for human MDA-MB-231 cells to IC50 for ring stage Plasmodium falciparum 3D7; type: functional; design: reference not given here
[7] = Selectivity index, ratio of EC50 for human MDA-MB-231 cells to IC50 for ring stage Plasmodium falciparum K1; type: functional; design: reference not given here
Histone deacetylase 1 = Histone deacetylase 1 (Homo sapiens, UniProt Q13547)
Description: Inhibition of human HDAC1 using Arg-His-Lys-Lys (Ac) as substrate incubated for 2 hrs by fluorescence assay

OPM-2 = experiment: Antiproliferative activity against human OPM2 cells incubated for 48 hrs by CellTiter-Glo luminescent cell viability assay; type: functional, cell-based; settings: OPM-2, 48 h
[8] = biological target: Histone deacetylase 1/2/3 (Homo sapiens, UniProt Q13547+O15379+Q92769); experiment: Inhibition of HDAC1/2/3 in human KMS-12-BM cells assessed as increase in Ac-H3 level at 2 to 10 uM incubated for 24 hrs by Western blot analysis; type: cell-based
KMS-12-BM = experiment: Effect on human KMS-12-BM cells assessed as inhibition in H3K9Me2 level at 2 to 10 uM incubated for 24 hrs by Western blot analysis; type: functional, cell-based
MDA-MB-231 [9] = experiment: Induction of apoptosis in human MDA-MB-231 cells assessed as early apoptotic cells at 1 uM incubated for 48 hrs by Annexin V-FITC/PI staining by flow cytometric analysis (reference value: 5%); type: functional
MDA-MB-231 [10] = experiment: Induction of apoptosis in human MDA-MB-231 cells assessed as viable cells at 1 uM incubated for 48 hrs by Annexin V-FITC/PI staining by flow cytometric analysis (reference value: 77%); type: functional; settings: MDA-MB-231, 48 h, read-out: Activity
MDA-MB-231 [11] = experiment: Induction of apoptosis in human MDA-MB-231 cells assessed as late apoptotic cells at 1 uM incubated for 48 hrs by Annexin V-FITC/PI staining by flow cytometric analysis (reference value: 3%); type: functional
MDA-MB-231 [12] = experiment: Induction of apoptosis in human MDA-MB-231 cells assessed as necrotic cells at 1 uM incubated for 48 hrs by Annexin V-FITC/PI staining by flow cytometric analysis (reference value: 15%); type: functional

Histone deacetylase 1, sequence (Q13547 whole entry): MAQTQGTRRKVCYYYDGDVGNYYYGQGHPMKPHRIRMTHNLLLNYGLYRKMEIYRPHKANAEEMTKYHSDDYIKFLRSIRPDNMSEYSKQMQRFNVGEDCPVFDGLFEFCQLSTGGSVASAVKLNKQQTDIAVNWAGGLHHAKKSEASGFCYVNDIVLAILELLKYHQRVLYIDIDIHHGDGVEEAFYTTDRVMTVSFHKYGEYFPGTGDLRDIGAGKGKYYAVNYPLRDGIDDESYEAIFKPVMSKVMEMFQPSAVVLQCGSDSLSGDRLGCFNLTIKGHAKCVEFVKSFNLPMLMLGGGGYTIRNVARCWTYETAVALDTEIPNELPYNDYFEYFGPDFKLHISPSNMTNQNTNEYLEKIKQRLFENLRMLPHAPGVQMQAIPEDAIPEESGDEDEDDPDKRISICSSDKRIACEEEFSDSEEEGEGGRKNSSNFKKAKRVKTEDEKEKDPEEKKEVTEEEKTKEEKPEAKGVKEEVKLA

SMILES | IC50 [2] [nM] | EC50 (MDA-MB-231 [3]) [nM] | EC50 (MCF7) [nM] | IC50 (Plasmodium falciparum [4]) [nM] | IC50 (Plasmodium falciparum [5]) [nM] | Selectivity Index [6] | Selectivity Index [7] | IC50 (Histone deacetylase 1) [nM] | other results
COc1cc2nc(Nc3ccc(NC(=O)CCCCCCC(=O)NO)cc3)nc(NC3CCN(Cc4ccccc4)CC3)c2cc1OC | < 0.5 | 5100 | 12000 | 200 | 878 | 26 | 6 | 1030 | Ratio IC50 [1]: 40
COc1cc2nc(Nc3ccc(NC(=O)CCCCCCC(=O)NO)cc3)nc(NC3CCN(Cc4ccccc4Cl)CC3)c2cc1OC | 9.09 | 4100 | 4900 | 96 | 489 | 43 | 8 | 3370 | 
O=C(CCCCCCC(=O)Nc1ccccc1)NO [VORINOSTAT] |  |  |  |  |  |  |  |  | EC50 (OPM-2): 2900 nM
O=C(CCCCCCC(=O)Nc1ccc(Nc2nc(NC3CCN(Cc4ccccc4)CC3)c3sccc3n2)cc1)NO | 5.9 | 2900 | 2900 |  |  |  |  | 233 | 
COc1cc2nc(N3CCCN(C)CC3)nc(NC3CCN(Cc4ccccc4)CC3)c2cc1OC |  | 2900 | 3300 | 152 |  |  |  |  | inhibition [8]: inactive; Activity (KMS-12-BM): Active
COc1cc2nc(Nc3ccc(NC(=O)CCCCCCC(=O)NO)cc3)nc(NC3CCN(Cc4ccc(F)cc4)CC3)c2cc1OC | 7.98 | 4900 | 4900 | 111 | 296 | 44 | 17 | 2150 | 
COc1cc2nc(N3CCN(C(=O)CCCCCCC(=O)NO)CC3)nc(NC3CCN(Cc4ccccc4)CC3)c2cc1OC | 35.5 | 7000 | 7700 |  |  |  |  | 3080 | 
COc1cccc2c1C(=O)c1c(O)c3c(c(O)c1C2=O)C[C@@](O)(C(=O)CO)C[C@@H]3O[C@H]1C[C@H](N)[C@H](O)[C@H](C)O1 [DOXORUBICIN] |  |  |  |  |  |  |  |  | Activity (MDA-MB-231 [9]): 1%; viability at 1 µM (MDA-MB-231 [10]): 1%; Activity (MDA-MB-231 [11]): 92%; Activity (MDA-MB-231 [12]): 6%
